# Results from patent US8568784B2, “Nanoparticles for delivery of active agents” (Morehouse School of Medicine, priority 2006, dated 2013).
# Assay: Percent entrapment and loading studies of particles
# Format: physicochemical
# Conditions: entrapped in PCL-XP particles
SMILES,entrapment efficiency [%],loading per weight of the particles [%]
[Gd] [gadolinium],~100,~20
"O=S(=O)([O-])c1cc(S(=O)(=O)Cl)ccc1C1=c2cc3c4c(c2Oc2c1cc1c5c2CCCN5CCC1)CCC[N+]=4CCC3 [TR, Texas Red]",~100,~20
N.N.[Cl][Pt][Cl] [cisplatin],~100,~20
